Results: patent US20100278855A1, “NEUROPROTECTIVE GANODERMA COMPOSITIONS AND METHODS OF USE” (priority 2009, published 2010)

Key:
nitric oxide (NO) = assay: NO assay (Griess reagent) in microglia culture medium; assay type: cell-based, rat; details: stimulus alone: LPS 0.25 μg/ml or MPP+-treated cell membrane fraction 150 μg/ml
Protocol: (§1) Microglia were isolated and purified from brains of 12-24 hours old Wistar rats supplied by Laboratory Animal Center (Le, W. D. et al., 2001, J. Neurosci., 21:8447-8455). Briefly, after brains were dissected and the meninges removed, the tissues were minced and digested with trypsin (0.25% trypsin-EDTA in 0.1M phosphate buffer) for 20 minutes at 37° C., triturated with a fire-polished Pasteur pipette and filtered through a […] nylon cell strainer. After centrifugation for 5 minutes at 800 rpm, the tissues were suspended into DMEM containing 10% fetal bovine serum (FBS), and seeded in 75 cm^2 flasks at a density of 5×10^5/ml cells per flask.
Two weeks after the seeding, the flasks were shaken at 180 rpm for 4 hours, and the floating cells were collected and centrifuged for 5 minutes at 800 rpm. The cells were resuspended and plated to 96-well plates for further experimental treatment. […]
The production of NO was quantified by measuring the released NO metabolites (nitrates and nitrites) with Griess reagent (Mayer, A. M., 1998, Medicina (B Aires), 58:377-385). […] The medium was incubated with the same volume of Griess reagent at room temperature for 10 minutes before measuring absorbance at 540 nm in a LP-400 ELISA reader (Diagnostics Pasteur, Marne-la-Coquette, France) with appropriate standards. […]

IL-1β mRNA = assay: Real-time PCR of IL-1β mRNA in primary microglial cells; assay type: cell-based, rat; details: stimulus alone vs control cells
Excerpt: (§2) Total RNA was extracted from primary microglial cells using RNAprep Kit according to the manufacturer's specifications. RNA was primed with random 9 mers and converted into cDNA by reverse transcription (RT) using AMV reverse transcriptase by following the manufacturer's recommended protocol (Schell, J. B. et al., 2007, J. Neuroimmunol., 189:75-87; Liu, B. et al., 2000, J. Pharmacol. Exp. Ther., 293:607-617). The resulting cDNA was then subjected to real-time PCR with SYBR Premix Ex Taq containing a final concentrations of 1×SYBR Green (Molecular Probes) and 0.2 μM of the primer set of interest in a […] reaction. The PCR mixture was run in the DNA engine Opticon 2 (MJ research; Waltham, Mass.). After an initial 10-second 95° C. denaturation step, the reaction was run through 35 cycles at 95° C. for 5 s, 60° C. for 30 s, and 80° C. for 1 s. Melting curve analysis was executed to ensure the resulting products from the reaction had equivalent and appropriate melting temperatures. The specific primers used are listed in Table 1 (Schell, J. B. et al., 2007, J. Neuroimmunol., 189:75-87). The quantification of target transcripts was based on a calibration curve. The “housekeeping” gene β-actin was targeted for an internal control gene. The test gene data were normalized by corresponding β-actin data.

TNF-α = TNF-α ELISA in microglia culture medium; assay type: cell-based, rat; details: stimulus alone: LPS 0.25 μg/ml or MPP+-treated cell membrane fraction 150 μg/ml
Protocol: as §1
(§3) Two weeks after the seeding, the flasks were shaken at 180 rpm for 4 hours, and the floating cells were collected and centrifuged for 5 minutes at 800 rpm. The cells were resuspended and plated to 96-well plates for further experimental treatment.
(§4) To study the interaction of reactive microglia with MES 23.5 cells, microglia and MES 23.5 cells were co-cultured in 24-well culture plates. Briefly, the purified microglia were plated at a density of 1×10^4/well 1 day before addition of MES 23.5 cells at a ratio of 2:1 (MES 23.5 to microglia). […]
(§5) Samples were prepared similar to NO samples and the production of these factors were determined using rat TNF-α kit, rat IL-1β ELISA kit and superoxide Assay Kit-WST according to the manufacturer's instructions. […]

superoxide = assay: Superoxide assay (Assay Kit-WST) in microglia cultures; assay type: cell-based, rat; details: stimulus alone: LPS 0.25 μg/ml or MPP+-treated cell membrane fraction 150 μg/ml
Protocol: as §1, §3, §4, §5

[1] = test system: MES 23.5 and microglia co-cultures; assay: High-affinity [3H] dopamine uptake assay, MES 23.5 and microglia co-cultures; assay type: cell-based, rat; details: no Ganoderma
Excerpt: (§6) The dopaminergic cell line MES 23.5 was a gift from professor Wei-dong Le, Department of Neurology, Baylor College of Medicine, Houston. The MES 23.5 cells were derived from somatic cell fusion of rat embryonic mesencephalic cells with murine N18TG2 neuroblastoma cells (Crawford, G. D. et al., 1992, J. Neurosci., 12:3392-3398). MES 23.5 cells display many properties of developing neurons of the SN zona compacta and offer several advantages for such initial studies, including greater homogeneity than primary cultures and susceptibility to both free-radical-mediated cytotoxicity and calcium-dependent cell death. […]
(§7) Cells in each well were washed with 1 ml of Krebs-Ringer buffer (16 mM NaH2PO4, 16 mM Na2HPO4, 119 mM NaCl, 4.7 mM KCl, 1.8 mM CaCl2, 1.2 mM MgSO4, 1.3 mM EDTA, and 5.6 mM glucose; pH 7.4). […] After mixing the lysate with 3 ml of scintillation fluid overnight, radioactivity was determined with Perkin Elmer 1450LSC Luminescence Counter (Waltham, USA.). Specific uptake was determined by subtracting the nonspecific counts for the total activity.
(§8) To assess inflammation mediated neurotoxicy, dopaminergic MES23.5 neurons were exposed to 100 μM MPP^+ or 0.25 μg/ml LPS in the absence or presence of microglia co-culture for 24 hr, and neurotoxicity was assessed using [3H] […]

TNF-α mRNA = assay: Real-time PCR of TNF-α mRNA in primary microglial cells; assay type: cell-based, rat; details: stimulus alone vs control cells
Excerpt: as §2

IL-1β = IL-1β ELISA in microglia culture medium; assay type: cell-based, rat; details: stimulus alone: LPS 0.25 μg/ml or MPP+-treated cell membrane fraction 150 μg/ml
Protocol: as §1, §3, §4, §5

MES 23.5 cells = assay: High-affinity [3H] dopamine uptake assay, MES 23.5 neurons alone; assay type: cell-based, rat/murine; details: 100 μM MPP+ 24 hr, MES23.5 neurons alone, no Ganoderma
Excerpt: as §6, §7, §8

Compound	increase of NO level (nitric oxide (NO))	IL-1β mRNA expression (IL-1β mRNA)	increase of TNF-α level (TNF-α)	increase of superoxide level (superoxide)	reduction of [3H] DA uptake ([1]; 0.25 LPS 24 hr, neuron-microglia co-cultures)	TNF-α mRNA expression (TNF-α mRNA)	increase of IL-1β level (IL-1β)	decrease in [3H] DA uptake ([1]; 100 μM MPP+ 24 hr, MES23.5 and microglia co-cultures)	decrease in [3H] DA uptake (MES 23.5 cells)
lipopolysaccharide [LPS]	5-11 fold	significantly increased	6-11 fold	5-11 fold	approximately 50%	significantly increased	6-11 fold	–	–
C[n+]1ccc(-c2ccccc2)cc1 [MPP^+]	–	–	–	–	–	–	–	about 74%	about 66%
